We go through 10 compounds from ChEMBL document CHEMBL1135881, “Ribose-modified nucleosides as ligands for adenosine receptors: synthesis, conformational analysis, and biological evaluation of 1'-C-methyl adenosine analogues” (J Med Chem, 2002).

Structures are written as SMILES.

Assay [1] has as its target Adenosine receptors; A1 & A3 (Rattus norvegicus) (UniProt P25099+P28647). The assay can be described thus: Selectivity for Adenosine A3 over Adenosine A1 receptor. Format: protein assay.
Assay [2] has as its target T1, Adenosine receptor A1 (Rattus norvegicus, UniProt P25099).
T1 sequence (P25099 whole entry): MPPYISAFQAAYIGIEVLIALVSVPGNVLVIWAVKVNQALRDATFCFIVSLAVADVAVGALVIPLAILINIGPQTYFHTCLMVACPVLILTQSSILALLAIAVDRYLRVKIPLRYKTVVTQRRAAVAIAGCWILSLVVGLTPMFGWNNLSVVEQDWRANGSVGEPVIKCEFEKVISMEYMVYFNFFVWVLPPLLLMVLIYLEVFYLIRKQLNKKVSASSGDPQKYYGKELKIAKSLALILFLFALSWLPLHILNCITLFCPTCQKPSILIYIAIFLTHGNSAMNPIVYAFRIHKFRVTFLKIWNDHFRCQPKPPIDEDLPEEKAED
Description: Inhibition of [3H]CHA (N6-cyclohexyl adenosine) to rat brain membrane Adenosine A1 receptor

Assay [3] concerns the target Adenosine receptor A2a (Rattus norvegicus, UniProt P30543). The assay can be described thus: Affinity to Adenosine A2A receptor of rat brain striatum using [3H]-CGS- 21680. In kind it is tissue-based.
For assay [4], the species on record is Rattus norvegicus. The assay can be described thus: % maximal inhibition of Adenylyl cyclase activity in rat cortical membranes at 10 uM. Format: functional.
In assay [5] the target is T2, Adenosine receptor A3 (Rattus norvegicus) (UniProt P28647).
T2 sequence (whole entry): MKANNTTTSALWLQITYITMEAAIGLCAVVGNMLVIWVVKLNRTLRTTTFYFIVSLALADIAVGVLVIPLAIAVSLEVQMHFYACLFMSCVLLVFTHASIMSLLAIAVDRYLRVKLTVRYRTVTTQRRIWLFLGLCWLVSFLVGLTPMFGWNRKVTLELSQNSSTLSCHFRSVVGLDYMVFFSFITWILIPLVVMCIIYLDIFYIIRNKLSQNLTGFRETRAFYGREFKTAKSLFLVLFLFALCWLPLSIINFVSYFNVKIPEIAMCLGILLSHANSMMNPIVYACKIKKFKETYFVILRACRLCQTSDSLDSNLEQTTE
The experiment in a line: Displacement of [3H](R)-PIA from Adenosine A3 receptor of rat testis membrane with 150 nM DPCPX at 10e-5 M.

Assay [6] is filed under the species Rattus norvegicus. The assay can be described thus: % maximal inhibition of Adenylyl cyclase activity in rat cortical membranes at 100 uM. Format: functional.
Assay [7] addresses T3, Adenosine receptor A3 (Rattus norvegicus, UniProt P28647).
T3 sequence (P28647 whole entry): T2 sequence (whole entry)
The assay can be described thus: Affinity to Adenosine A3 receptor of rat testis membrane using [3H](R)-PIA with 150 nM DPCPX.

For assay [8], the species on record is Rattus norvegicus. The experiment in a line: Inhibition of Adenylyl cyclase activity in rat cortical membranes. In kind it is functional.
Assay [9] has as its target T2, Adenosine receptor A3 (Rattus norvegicus). The assay can be described thus: Displacement of [3H](R)-PIA from Adenosine A3 receptor of rat testis membrane with 150 nM DPCPX.

Adenosine receptor A2a, sequence (P30543 whole entry): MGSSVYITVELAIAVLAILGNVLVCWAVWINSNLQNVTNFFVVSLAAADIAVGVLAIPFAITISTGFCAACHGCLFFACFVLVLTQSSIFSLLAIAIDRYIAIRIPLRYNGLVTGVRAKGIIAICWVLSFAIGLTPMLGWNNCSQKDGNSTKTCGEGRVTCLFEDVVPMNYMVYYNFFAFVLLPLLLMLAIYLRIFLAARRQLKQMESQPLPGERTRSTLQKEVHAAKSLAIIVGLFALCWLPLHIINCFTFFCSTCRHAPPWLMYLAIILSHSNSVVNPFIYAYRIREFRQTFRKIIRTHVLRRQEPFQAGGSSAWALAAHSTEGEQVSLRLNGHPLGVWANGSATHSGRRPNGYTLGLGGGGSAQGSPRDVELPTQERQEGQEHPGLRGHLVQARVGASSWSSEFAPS

The compound `C[C@@]1(O)[C@H](O)[C@@H](CO)O[C@H]1n1cnc2c(NC3CCCC3)ncnc21` displayed a Selectivity in [1] of 22.1. The same compound returned a Ki in assay [2] of 9.5 nM.
Take `OC[C@H]1O[C@@H](n2cnc3c(NC4CCCC4)ncnc32)[C@H](O)[C@@H]1O` [N6-CYCLOPENTYLADENOSINE]: the inhibition constant Ki in assay [3] worked out at 380 nM. The Max inhibition in [4] turned out to be 15.5%.
Take `C[C@@]1(O)[C@H](O)[C@@H](CO)O[C@H]1n1cnc2c(N)ncnc21`: in [5], the Displacement was 0%. The Ki in assay [2] was found to be 740 nM.
`C[C@@H](Cc1ccccc1)Nc1ncnc2c1ncn2C1O[C@H](CO)[C@@H](O)[C@@]1(C)O` (some centres undefined) showed a Selectivity in assay [1] of 200. Moreover, the Ki in [2] was 50 nM.
`C[C@H](Cc1ccccc1)Nc1ncnc2c1ncn2[C@]1(C)O[C@H](CO)[C@@H](O)[C@H]1O` yielded a Max inhibition in assay [6] of 23.7%. Moreover, the Ki in assay [7] stood at 670 nM. Besides, the IC50 in [8] was 65 nM.
As to `C[C@@]1(n2cnc3c(N)ncnc32)O[C@H](CO)[C@@H](O)[C@H]1O`, the Max inhibition in assay [6] came out at 22%. For the same compound, the Selectivity in [1] was greater than 1.3. This compound came in with an inhibition constant Ki in [2] of 7700 nM. For the same compound, the IC50 in assay [8] stood at 3440 nM. The compound further registered a Displacement in [9] of 19%.
As to `C[C@@]1(n2cnc3c(NC4CCCC4)ncnc32)O[C@H](CO)[C@@H](O)[C@H]1O`, the Max inhibition in [6] came out at 17.4%. The compound also displayed a Selectivity in assay [1] of 52. The Ki in assay [2] came out at 100 nM; in [7], 5170 nM. In addition, in assay [8], half-maximal inhibition (IC50) required 357 nM.
With `C[C@H](Cc1ccccc1)Nc1ncnc2c1ncn2[C@@H]1O[C@H](CO)[C@@H](O)[C@@]1(C)O`, the Ki in assay [3] came to 7400 nM; in assay [2] it was 4.7 nM. The compound further had a Selectivity in assay [1] of 230.
In assay [1], `C[C@@]1(O)[C@@H](CO)O[C@@H](n2cnc3c(N)ncnc32)[C@@H]1O` showed a Selectivity greater than 202.
In assay [6], `C[C@@H](Cc1ccccc1)Nc1ncnc2c1ncn2[C@]1(C)O[C@H](CO)[C@@H](O)[C@H]1O` returned a Max inhibition of 29%. Also, the Ki stood at 270 nM in [2] and 6160 nM in assay [7]. In addition, it took 140 nM to reach half-maximal inhibition in assay [8] (IC50).
